What was measured:
[1] = test system: Nitric Oxide Synthase (NOS); assay: Inhibition of nitric oxide synthase (nitrite fluorimetric assay, LPS-stimulated macrophage cultures); type: cell-based; conditions: LPS-stimulated macrophages
How it was run: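 Nitrite/nitrate end-products of NOS quantified by in vitro fluorimetric assay in macrophage cultures stimulated with LPS. Compounds tested for inhibition of NOS activity.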

[2] = test system: transient MCAo in rats; assay: Transient MCAo evaluated by the staircase test; type: in vivo; conditions: for reduction of infarct volume compared to vehicle: not statistically different
Method: The materials for this procedure are identical to those from Physiological Example 5, except for the different concentrations of PRS-211,095. The procedural differences are as follows: • Male Sprague Dawley rats, 230-270 gr (Harlan, Israel) were used. The following compounds and their respective concentrations were tested: • Dexanabinol and analogs PRS-211,095 and PRS-211,220 in PEG ethanol cosolvent 50 mg/ml. Dexanabinol, the analogs and their vehicle were diluted in Intralipid® 20% (Pharmacia) prior to drug administration.
The procedure is essentially as described in Montoya et al. (Montoya, Campbell-Hope, Pemberton and Dunnet, J. Neurosci. Meth. 36:219-228, 1991) Animals were kept under mild food deprivation for 3-5 days, receiving 15-gr. food once a day (between 16:00 and 17:00) and free access to water. Animals were trained prior to the test for 3-5 days according to the protocol of Sharkey et. al. (Sharkey, Crawford, Butcher and Martson, Stroke 27:2282-2286, 1996).
In brief, the staircase box contains two rows of seven stairs in each. Two 45 mg food pellets were placed on each step. Animals were placed in the box for 15 minutes sessions. At the end of the session the number of eaten (grasped) and displaced pellets was counted and recorded. Animals were tested twice a day, 4 hours apart. The first session was performed between 8-9 AM and second between 12-13 PM. The animals were trained until they grasped (ate) at least 8 pellets from each set of stairs for two consecutive sessions. Up to one week after the end of the successful training session the animals underwent transient MCAo. Transient MCAo was performed in essentially the same manner as described in Physiological example 5 with the following modification at step i: • Two minutes prior to thread removal rats were re-anesthetized and administered IV with Dexanabinol 5mg/kg, analogs PRS-211,220 or PRS-211,095 at 0.5, 2.5, 5 or 10 mg/kg or vehicle 5 ml/kg. One additional group was sham-treated.
Animals were allowed to recover from the surgery for five days. The mild food deprivation was re-employed during the days following the ischemic insult. They were tested in the staircase box using the above method for 9-12 days. Animals were weighed twice a week during this period.
At the end of the evaluation period, animals were euthanized with pentobarbitone 100 mg/kg IP. The animals were perfused through the heart with heparinized 4% formaldehyde solution in PBS (pH 7.4). Brains were then removed, and kept in the same solution for at least 24h. Then the brains - from the rostral side of the cortex to the cerebellum- were sunk in 30% sucrose in PBS, cryosectioned (20 µm), dried and stained with thionin for histological evaluation of the brain infarct volume. Eight sections at the levels of: 3.3;+2.8;+1.8; +0.8; -0.4;-1.4; -2.2; and -3.4 from Bregma were measured (Swanson, Rat Brain Atlas, 1992). Sections were captured by a CCD camera (V-tech MP-470) and image analyzed (Scion image 1.62A). Infarct size was determined from the series of the 8 sections by either calculation of the infarct volume (mm3) by summing the series of mean lesion areas of two adjacent sections multiplied by the distance between them or calculation of the mean infarct size as percentage of the contralateral hemisphere size; calculation of the mean of the surviving ipsilateral side as percentage of the contralateral hemisphere size; calculation of the mean ipsilateral side ventricle as percentage of the contralateral hemisphere ventricle.
• a. The infarct size was compared using ANOVA (analysis of variance) followed by Duncan's post hoc test. • b. […]

What does the source list for CCCCCCC(C)(C)c1cc(O)c2c(c1)OC(C)(C)[C@H]1CC=C(Cn3ccnc3)C[C@H]21 (single isomer, unassigned) [211,095-000]?
inhibition at 10 µM [1]: 14%; contralateral performance, pellet consumption ([2]; 0.5 mg/kg): moderately improved pellet consumption; contralateral performance, pellet consumption ([2]; 2.5 mg/kg): moderately improved pellet consumption; infarct volume, protection ([2]; 2.5 mg/kg, histopathology): No protection; contralateral performance, pellet consumption ([2]; 5 mg/kg): robust improvement; reduction of infarct volume compared to vehicle ([2]; 5 mg/kg, histopathology): 35%; contralateral performance, pellet consumption ([2]; 10 mg/kg): robust improvement; Mortality Rate(%) ([2]; Table 4, 0.5 mg/kg IV): 21%; No. Dead Animals ([2]; Table 4, 0.5 mg/kg IV): 3; Mortality Rate(%) ([2]; Table 4, 2.5 mg/kg IV): 30%; No. Dead Animals ([2]; Table 4, 2.5 mg/kg IV): 3; Mortality Rate(%) ([2]; Table 4, 5 mg/kg IV): 0%; No. Dead Animals ([2]; Table 4, 5 mg/kg IV): 0; Mortality Rate(%) ([2]; Table 4, 10 mg/kg IV): 9%; No. Dead Animals ([2]; Table 4, 10 mg/kg IV): 1

With CCCCCCC(C)(C)c1cc(O)c2c(c1)OC(C)(C)[C@H]1CC=C(CO)C[C@H]21 [211,007-000 HU-211, 1,1 dimethyl heptyl-(3 S,4S)-7-hydroxy-Δ^6-tetrahydrocannabinol, reference compound] as the compound, how does the inhibition at 10 µM [1] read?
The inhibition at 10 µM was 20%.

And the “contralateral performance, pellet consumption” value ([2]; 0.5 mg/kg)?
The value was “No improvement”.

And the “reduction of infarct volume compared to vehicle” value ([2]; 5 mg/kg, histopathology)?
The value was 35%.

What about the “Mortality Rate(%)” value ([2]; Table 4, 5 mg/kg IV) of the same compound?
Its value is 0%.

And the “No. Dead Animals” value ([2]; Table 4, 5 mg/kg IV)?
Its value is 0.

What about the “Mortality Rate(%)” value ([2]; Table 5, 0.5 mg/kg IV) of the same compound?
The value was 36%.

What about the “No. Dead Animals” value ([2]; Table 5, 0.5 mg/kg IV) of the same compound?
Its value is 4.

Source: patent EP1785417A2, “Novel non-psychotropic cannabinoids” (priority 2000, dated 2001)
